Test results taken from PubChem BioAssay AID248 (DTP/NCI, 2004).
Inconclusive results and toxic doses are left out. Rule as the data show it: active = T/C of 150% or more; inactive = T/C below 125%.

Test system: L1210 leukemia ip in BDF1 mice, survival T/C
Experiment: NCI In Vivo Anticancer Drug Screen. Data for tumor model L1210 Leukemia (intraperitoneal) in B6D2F1 (BDF1) mice
Conditions: endpoint: mean survival time, higher = longer survival
Outline: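 Ratio derived from survival: compound-dosed mice over vehicle-dosed mice, all bearing a transplantable tumor.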

[1] = dose: 100.0 mg/kg/injection, schedule: Q01DX001 (ip), vehicle: saline
[2] = dose: 200.0 mg/kg/injection, schedule: Q01DX001 (ip), vehicle: saline
[3] = dose: 400.0 mg/kg/injection, schedule: Q01DX001 (ip), vehicle: saline
[4] = dose: 25.0 mg/kg/injection, schedule: Q01DX009 (ip), vehicle: saline with Tween-80
[5] = dose: 25.0 mg/kg/injection, schedule: Q04DX003 (ip), vehicle: saline with Tween-80
[6] = dose: 50.0 mg/kg/injection, schedule: Q04DX003 (ip), vehicle: saline with Tween-80
[7] = dose: 100.0 mg/kg/injection, schedule: Q04DX003 (ip), vehicle: saline with Tween-80

Measured: T/C

CCOC(=O)CCc1c(C(=O)OCC)[nH]c(C)c1C(=O)C(=O)OC
inactive: dose: 25.0 mg/kg/injection, schedule: Q04DX003 (ip), vehicle: Klucel (hydroxypropylcellulose) (HPC) 101 % of control | dose: 50.0 mg/kg/injection, schedule: Q04DX003 (ip), vehicle: Klucel (hydroxypropylcellulose) (HPC) 98 % of control | dose: 100.0 mg/kg/injection, schedule: Q01DX001 (ip), vehicle: Klucel (hydroxypropylcellulose) (HPC) 95 % of control | dose: 100.0 mg/kg/injection, schedule: Q04DX003 (ip), vehicle: Klucel (hydroxypropylcellulose) (HPC) 103 % of control | dose: 200.0 mg/kg/injection, schedule: Q01DX001 (ip), vehicle: Klucel (hydroxypropylcellulose) (HPC) 93 % of control | dose: 400.0 mg/kg/injection, schedule: Q01DX001 (ip), vehicle: Klucel (hydroxypropylcellulose) (HPC) 90 % of control

CCCCCCCCCCOC(=O)C[n+]1ccc(C(N)=O)cc1
inactive: dose: 12.5 mg/kg/injection, schedule: Q04DX003 (ip), vehicle: saline 98 % of control | dose: 25.0 mg/kg/injection, schedule: Q04DX003 (ip), vehicle: saline 91 % of control | dose: 50.0 mg/kg/injection, schedule: Q04DX003 (ip), vehicle: saline 91 % of control

CC(=O)c1c(C)cc(=O)[nH]c1O
inactive: [1] 107 % of control | [2] 97 % of control | [3] 110 % of control

CCOCCOC(=O)COCC(=O)OCCOCC
inactive: [1] 100 % of control | [2] 94 % of control | [3] 98 % of control

CC(C)(C)CC(C)(C)CC(C)(C)NCCCN
inactive: dose: 12.5 mg/kg/injection, schedule: Q01DX009 (ip), vehicle: saline with Tween-80 102 % of control | [4] 93 % of control | [5] 90 % of control | [6] 97 % of control | [7] 96 % of control

O=S(=O)(c1ccc(Cl)cc1)C1CCCC1Cl (stereo not given)
inactive: [1] 110 % of control | [2] 109 % of control | [3] 100 % of control

O=C(NC(c1ccccc1)c1ccccc1)c1ccccc1
inactive: [4] 88 % of control | [5] 97 % of control | dose: 50.0 mg/kg/injection, schedule: Q01DX001 (ip), vehicle: saline 97 % of control | dose: 50.0 mg/kg/injection, schedule: Q01DX009 (ip), vehicle: saline with Tween-80 88 % of control | [6] 94 % of control | [1] 91 % of control | dose: 100.0 mg/kg/injection, schedule: Q01DX009 (ip), vehicle: saline with Tween-80 88 % of control | [7] 89 % of control

NC(=O)NC1CC1(c1ccccc1)c1ccccc1 (stereo not given)
inactive: dose: 42.0 mg/kg/injection, schedule: Q01DX009 (ip), vehicle: other 105 % of control | dose: 72.0 mg/kg/injection, schedule: Q01DX009 (ip), vehicle: other 111 % of control | dose: 120.0 mg/kg/injection, schedule: Q01DX009 (ip), vehicle: other 105 % of control | dose: 200.0 mg/kg/injection, schedule: Q01DX009 (ip), vehicle: other 93 % of control
